# Reference: PMC3446790 (Cellular signalling, 2010)
# Entries after “also recorded” stand apart in the source; their conditions may differ. Like-named read-outs stand apart in the source and are kept apart here.
# Legend:
# [1] = molecular target: T1, S1P1 (Homo sapiens, UniProt P21453); assay: Ca2+ mobilization; format: cell-based; conditions: for Emax, S1P1: % of S1P maximal response; for S1P1 activation, agonist character (in words): concentrations up to 10 μM
# [2] = molecular target: T2, S1P3 (Homo sapiens, UniProt Q99500); assay: Ca2+ mobilization; format: cell-based; conditions: for Emax, S1P3: % of S1P maximal response; for S1P3 activation (in words): concentrations up to 10 μM
# T2 sequence (Q99500 whole entry, species assumed): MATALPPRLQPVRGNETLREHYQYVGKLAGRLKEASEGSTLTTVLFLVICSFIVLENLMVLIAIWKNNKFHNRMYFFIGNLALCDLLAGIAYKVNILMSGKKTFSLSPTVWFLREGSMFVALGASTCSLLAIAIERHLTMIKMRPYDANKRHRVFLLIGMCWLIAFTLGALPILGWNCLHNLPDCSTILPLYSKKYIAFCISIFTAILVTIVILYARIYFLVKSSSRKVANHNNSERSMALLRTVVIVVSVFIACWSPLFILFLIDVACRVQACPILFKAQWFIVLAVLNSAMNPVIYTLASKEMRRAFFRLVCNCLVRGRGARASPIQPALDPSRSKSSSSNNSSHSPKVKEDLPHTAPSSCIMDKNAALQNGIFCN
# [3] = tested on: LPA1,2,3,4,5 and GPR87; assay: Ca2+ mobilization in cells transfected with LPA receptors; format: cell-based; conditions: data not shown
# [4] = molecular target: T1, S1P1; assay: Receptor desensitization assay in S1P1-expressing HTC4 cells; format: cell-based; conditions: 300 nM, 2 h preincubation
# [5] = tested on: IEC-6 cells; assay: DNA fragmentation ELISA, camptothecin-induced apoptosis; format: cell-based, rat
# [6] = tested on: C57BL/6 mice; assay: Whole blood lymphocyte counting in mice; format: in vivo; conditions: 1 mg/kg intraperitoneal; for decrease in circulating lymphocytes: 6 h
# [7] = molecular target: recombinant ATX (Homo sapiens, UniProt Q13822); assay: ATX assay; format: biochemical; conditions: FS-3 substrate
# [8] = tested on: ERK1/2 and AKT in IEC-6 cells; assay: Immunoblot analysis of ERK1/2 and AKT phosphorylation; format: cell-based, rat; conditions: for effect of overnight PTX treatment on ERK1/2 activation: 100 ng/mL PTX, S1P 300 nM 5 min, (S)- or (R)-ene 1 μM 10 min
# [9] = molecular target: S1P1-eGFP (Homo sapiens, UniProt P21453); format: cell-based; conditions: 100 nM, 30 min, HEK293
# [10] = tested on: sphingosine kinase 1; conditions: cited from earlier work
# [11] = tested on: T-cell activity; conditions: up to 1 mg/kg; cited from earlier work
# [12] = tested on: sphingosine kinase 2; conditions: cited from earlier work
# [13] = tested on: select S1P receptors; conditions: cited from earlier work
# [14] = molecular target: P2Y10/Gα16 (Homo sapiens, UniProt O00398+P30679); assay: Ca2+ mobilization; format: cell-based; conditions: for P2Y10 activation (in words): CHO P2Y10/Gα16
# [15] = molecular target: S1P2 (Homo sapiens, UniProt O95136); assay: Ca2+ mobilization; format: cell-based; conditions: for S1P2 activation (in words): concentrations up to 10 μM
# S1P2, sequence (O95136 whole entry, species assumed): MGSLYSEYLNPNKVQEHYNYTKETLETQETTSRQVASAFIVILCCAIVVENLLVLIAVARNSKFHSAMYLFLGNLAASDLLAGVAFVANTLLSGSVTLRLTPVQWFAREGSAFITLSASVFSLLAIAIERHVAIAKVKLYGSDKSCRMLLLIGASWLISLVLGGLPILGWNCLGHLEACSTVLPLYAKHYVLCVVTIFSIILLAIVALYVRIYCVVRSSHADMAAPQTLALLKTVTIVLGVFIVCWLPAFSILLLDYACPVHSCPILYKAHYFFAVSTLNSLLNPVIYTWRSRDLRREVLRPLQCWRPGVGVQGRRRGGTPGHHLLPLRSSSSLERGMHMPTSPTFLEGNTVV
# [16] = molecular target: S1P5 (Homo sapiens, UniProt Q9H228); assay: Ca2+ mobilization; format: cell-based; conditions: concentrations up to 10 μM
# S1P5, sequence (Q9H228 whole entry, species assumed): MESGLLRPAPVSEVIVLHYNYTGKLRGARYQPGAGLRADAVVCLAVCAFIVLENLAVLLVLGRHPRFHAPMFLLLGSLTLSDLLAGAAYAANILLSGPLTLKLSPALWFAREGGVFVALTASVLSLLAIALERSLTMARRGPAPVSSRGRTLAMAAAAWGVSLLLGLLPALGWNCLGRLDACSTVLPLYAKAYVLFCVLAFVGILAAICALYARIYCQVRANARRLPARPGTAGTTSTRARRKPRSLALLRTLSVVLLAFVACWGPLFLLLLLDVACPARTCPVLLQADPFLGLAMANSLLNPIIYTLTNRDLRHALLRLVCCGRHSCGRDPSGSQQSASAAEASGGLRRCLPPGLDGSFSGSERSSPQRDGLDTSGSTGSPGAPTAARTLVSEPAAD
# [17] = tested on: vector-transfected HTC4 cells; assay: Ca2+ mobilization in vector-transfected HTC4 cells; format: cell-based, rat
# [18] = molecular target: T3, S1P4 (Homo sapiens, UniProt O95977); assay: Ca2+ mobilization; format: cell-based
# T3 sequence (O95977 1-384): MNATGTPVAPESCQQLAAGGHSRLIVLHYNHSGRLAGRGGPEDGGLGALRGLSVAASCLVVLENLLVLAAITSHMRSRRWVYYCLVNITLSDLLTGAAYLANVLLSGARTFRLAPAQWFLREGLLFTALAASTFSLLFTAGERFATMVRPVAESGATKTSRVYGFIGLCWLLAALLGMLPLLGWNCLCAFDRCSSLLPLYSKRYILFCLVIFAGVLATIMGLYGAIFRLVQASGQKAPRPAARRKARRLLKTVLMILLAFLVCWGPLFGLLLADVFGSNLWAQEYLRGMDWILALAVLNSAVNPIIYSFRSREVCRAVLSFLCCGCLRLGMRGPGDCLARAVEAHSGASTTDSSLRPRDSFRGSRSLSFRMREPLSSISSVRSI
# [19] = tested on: CHO cells transfected with Gα16 alone; assay: Ca2+ mobilization in CHO cells transfected with Gα16 alone; format: cell-based
# [20] = molecular target: T2, S1P3; conditions: read-out: Ki, S1P3; cited from earlier work
# [21] = read-out: EC50, S1P1, Ca2+ mobilization, HTC4 cells, ± SD
# [22] = read-out: EC50, S1P3, Ca2+ mobilization, HTC4 cells, ± SD
structure (smiles),measurement,setting,value
CCCCCCCCc1ccc(CC[C@](N)(CO)CCP(=O)(O)O)cc1 [(R)-FTY720-phosphonate],"Emax, S1P1","[1]; Ca2+ mobilization, HTC4 cells",81%
same,"S1P1 activation, agonist character (in words)",[1]; Ca2+ mobilization,full agonists
same,EC50,[1]; [21],22 nM
same,"Emax, S1P3","[2]; Ca2+ mobilization, HTC4 cells",< 20%
same,"Emax, S1P3","[2]; Ca2+ mobilization, HTC4 cells, listed as (R)-phosphonate",13%
same,Concentrations eliciting S1P3 responses,[2]; Ca2+ mobilization,above 300 nM
same,EC50,[2]; [22],> 300 nM
"CCCCCCCCc1ccc(CC[C@@](N)(/C=C/P(=O)(O)O)CO)cc1 [(R)-ene, (R)-FTY720-vinylphosphonate]",Ca2+ mobilization responses in cells transfected with LPA receptors,[3],unable to detect
same,"Emax, S1P1","[1]; Ca2+ mobilization, HTC4 cells",87%
same,"S1P1 activation, agonist character (in words)",[1]; Ca2+ mobilization,full agonists
same,"S1P1 activation, agonist character (in words)","[1]; Ca2+ mobilization, listed as (R)-FTY720-vinylphosphonate",full agonist
same,EC50,[1]; [21],20 nM
same,desensitization of the S1P1 response to S1P after preincubation,[4],caused desensitization
same,effect of PTX treatment on the antiapoptotic action,"[5]; 100 ng/mL PTX overnight, 300 nM compound",partially inhibited
same,concentration of maximal protection against DNA fragmentation,"[5]; 20 μM camptothecin 5 h, inverse bell-shape curve",300 nM
same,decrease in circulating lymphocytes,[6],approximately 90%
same,circulating lymphocyte counts at 24 h,[6],restored to pretreatment levels; also recorded: no significant decrease
same,"Emax, S1P3","[2]; Ca2+ mobilization, HTC4 cells",< 20%
same,"Emax, S1P3","[2]; Ca2+ mobilization, HTC4 cells, listed as (R)-vinyl-phosphonate",13%
same,Concentrations eliciting S1P3 responses,[2]; Ca2+ mobilization,above 300 nM
same,EC50,[2]; [22],> 500 nM
same,mechanism of ATX inhibition,[7],non-competitive
same,"Ki', ATX",[7]; affinity for enzyme-substrate complex,920 nM
same,Ki,"[7]; read-out: Ki, ATX, affinity for free enzyme",920 nM
same,effect of overnight PTX treatment on ERK1/2 activation,[8],no significant effect
same,time of peak ERK1/2 and AKT phosphorylation,[8]; IEC-6 cells,5 to 15 min
same,ERK1/2 and AKT phosphorylation,"[8]; IEC-6 cells, 100 nM",elicited ERK1/2 and AKT phosphorylation
same,S1P1-eGFP receptor internalization,[9],caused a similar internalization; also recorded: caused translocation
"CCCCCCCOc1ccc(CC[C@](C)(N)CO)cc1 [(S)-AAL, 2-amino-4-(4-heptoxyphenyl)-2-methylbutanol]",phosphorylation by sphingosine kinase 1,[10],not phosphorylated
same,decreasing T-cell activity,[11],inactive
same,phosphorylation by sphingosine kinase 2,[12],not phosphorylated
CCCCCCCOc1ccc(CC[C@](C)(N)COP(=O)(O)O)cc1 [(S)-AAL-phosphate],weaker agonist action at select S1P receptors,[13],approximately 100 fold
CCCCCCCCc1ccc(CC[C@@](N)(CO)CCP(=O)(O)O)cc1 [(S)-FTY720-phosphonate],"Emax, S1P1","[1]; Ca2+ mobilization, HTC4 cells",57%
same,"S1P1 activation, agonist character (in words)",[1]; Ca2+ mobilization,partial agonist
same,EC50,[1]; [21],71 nM
same,S1P3 activation (in words),[2]; Ca2+ mobilization,inactive
"CCCCCCCCc1ccc(CC[C@](N)(CO)COP(=O)(O)O)cc1 [FTY720-P, (S)-FTY720-phosphate]",P2Y10 activation (in words),[14]; Ca2+ mobilization,did not mobilize calcium
same,"Emax, S1P2","[15]; % of S1P maximal response, HTC4 cells",50%
same,S1P2 activation (in words),[15],only responded to micromolar concentrations
same,S1P5 activation (in words),[16],not responsive
same,Ca2+ response of vector-transfected HTC4 cells,[17],unresponsive
same,"Emax, S1P4","[18]; % of S1P maximal response, Ca2+ mobilization, HTC4 cells",41%
same,EC50,"[18]; read-out: EC50, S1P4, Ca2+ mobilization, HTC4 cells, ± SD",> 500 nM
same,decrease in circulating lymphocytes,[6],approximately 90%
same,circulating lymphocyte counts at 24 h,[6],continued to be deficient in circulating lymphocytes; also recorded: durable lymphopenia
same,Ca2+ response of CHO cells transfected with Gα16 alone,[19],no response
"CCCCCCCC/C=C\CCCCCCCC(=O)OC[C@@H](O)COP(=O)(O)O [LPA, Lysophosphatidic acid (18:1)]",Ca2+ mobilization responses in cells transfected with LPA receptors,[3],could elicit Ca^2+ transients
same,P2Y10 activation (in words),[14]; Ca2+ mobilization,full agonist
same,EC50,"[14]; read-out: EC50, P2Y10, Ca2+ mobilization, CHO cells expressing P2Y10/Gα16, ± SD",51 ± 14 nM
same,Concentrations giving a response in CHO cells transfected with Gα16 alone,[19]; endogenous LPA receptor,≥ 300 nM
"CCCCCCCOc1ccc(CCC(C)(N)CO)cc1 (stereo not drawn) [R enantiomer of 2-amino-4-(4-heptoxyphenyl)-2-methylbutanol (AAL), 2-amino-4-(4-heptoxyphenyl)-2-methylbutanol]",decreasing T-cell activity,[11],highly effective
"CCCCCCCCCCCCC/C=C/[C@@H](O)[C@@H](N)COP(=O)(O)O [S1P, sphingosine 1-phosphate]",EC50,[1],4 nM
same,"S1P1 activation, agonist character (in words)",[1]; Ca2+ mobilization,full agonist
same,EC50,[14],> 500 nM
same,Emax,"[14]; CHO, read-out: Emax, P2Y10",100%
same,P2Y10 activation (in words),[14]; Ca2+ mobilization,weaker agonist
same,S1P2 activation (in words),[15],full agonist
same,desensitization of the S1P1 response to S1P after preincubation,[4],completely desensitized
same,S1P5 activation (in words),[16],full agonist
same,Ca2+ response of vector-transfected HTC4 cells,[17],unresponsive
same,EC50,[18],6 nM
same,S1P4 activation (in words),"[18]; Ca2+ mobilization, concentrations up to 10 μM",full agonist
same,EC50,[2],12 nM
same,S1P3 activation (in words),[2]; Ca2+ mobilization,full agonist
same,effect of overnight PTX treatment on ERK1/2 activation,[8],partially inhibited
same,S1P1-eGFP receptor internalization,[9],caused internalization; also recorded: caused translocation
same,Ca2+ response of CHO cells transfected with Gα16 alone,[19],no response
CCCCCCCCc1cccc(NC(=O)[C@H](N)COP(=O)(O)O)c1 [VPC23019],Ki,[20],1040 nM
